Patent US10244759B2, “Use of forchlorfenuron for promoting plant growth” (KIM-C1 LLC, priority 2013, dated 2019)
Entries after “also recorded” stand apart in the source; their conditions may differ.

Tests used:
[1] = tested on: cotton seeds (G. hirsutum, FiberMax 9058); test: Cotton seed soak, lateral root development (Example 1); format: in vivo, Gossypium hirsutum
Description: Commercial cotton seeds (G. hirsutum, FiberMax 9058, Bayer CropScience) were submerged in tubs containing forchlorfenuron at concentrations of 0, 25, 50, 100, 250, 500, 1000, 4000 and 8000 ppm for 10 seconds. The seeds were then placed on paper towels on the lab bench and allowed to air dry. Six days after the seed soak, the seeds were planted in “conetainers” and placed in a greenhouse for one week. The soil was removed from the conetainer and the roots were washed by gently dipping the soil into a bucket of water. Roots were photographed and evaluated for lateral root development.

[2] = tested on: cotton (G. hirsutum, FiberMax 9058); test: Cotton seedling spray, lateral root development and phytotoxicity (Example 2); format: in vivo, Gossypium hirsutum; conditions: seedlings sprayed 6 days after planting
Protocol: Commercial cotton seed (G. hirsutum, FiberMax 9058, Bayer CropScience) was planted in conetainers and grown for 6 days prior to spraying with a range of forchlorfenuron concentrations. The plants were grown an additional 5 days prior to washing out the roots. Initial concentrations (0, 5, 10, 15, 20, 25, 50, 100, 250, 500, 1000, and 2000 ppm) were evaluated.

[3] = tested on: Cotton plants (G. hirsutum, FiberMax 9180 B2F); test: Cotton yield enhancement under abiotic and biotic stresses, boll count (Example 3); format: in vivo, Gossypium hirsutum; conditions: for number bolls: at harvest; for % increase over control: number bolls
Protocol: Cotton plants grown from commercial cotton seeds (G. hirsutum, FiberMax 9180 […], Bayer CropScience) were treated with forchlorfenuron at various stages of growth. […] Control plants were not treated at any stage of growth. At the time of harvest, cotton bolls on all plants were counted, and the percentages of bolls that were open and closed were calculated.

[4] = tested on: Broccoli plants (B. oleracea, var. Waltham 29); test: Broccoli root length, stem length and ratio thereof (Example 4); format: in vivo, Brassica oleracea; conditions: for Root Length AB Spray / Root/Stem Ratio AB Spray / Shoot Length AB Spray / Root Length A Spray / Root/Shoot Ratio A Spray / Shoot Length A Spray: percentage of the untreated level, 60 days after planting
Protocol: Broccoli plants (B. oleracea, var. […] The root length and stem length were measured 60 days after planting and the ratio of root length to stem length was calculated for every plant.

[5] = tested on: Winter wheat; test: Wheat root dry weight after spray (Example 5); format: in vivo; conditions: dry weight 50 days after planting, untreated 0.85
Protocol: (§1) Plants were sprayed with 0, 2.5, 5, or 7.5 ppm forchlorfenuron, at the cotyledon growth stage in the case of broccoli or at stage 1 in the case of wheat (treatment A), and optionally again with 5 ppm forchlorfenuron three days thereafter (treatment B). The dry weights of the plant roots were measured 50 days after planting.

[6] = tested on: Broccoli; test: Broccoli root dry weight after spray (Example 5); format: in vivo; conditions: for root weight, Broccoli (AB spray) / root weight, Broccoli (A spray): dry weight 50 days after planting, untreated 0.69
Protocol: as §1

[7] = tested on: Winter wheat; test: Winter wheat seed treatment, root weight (Table 3); format: in vivo; conditions: untreated 0.91
[8] = cited from earlier work
[9] = pH range; cited from earlier work
[10] = treating G. hirsutum seeds or plants
[11] = 1st square spray, 5 ppm, Day 41
[12] = 2.5 ppm ai at cotyledon stage + 5 ppm 3 days after
[13] = 5 ppm ai at cotyledon stage + 5 ppm 3 days after
[14] = 7.5 ppm ai at cotyledon stage + 5 ppm 3 days after

Which results are given for `O=C(Nc1ccccc1)Nc1ccnc(Cl)c1` [forchlorfenuron, 1-(2-chloropyridin-4-yl)-3-phenylurea]?
rooting patterns / lateral root lengths ([1]; seed treatment 250 ppm vs 0 ppm, eight plants per treatment (FIG. 1)): clear differences in rooting patterns; also recorded: increases in the lateral root lengths; concentration of optimal lateral root production ([1]; seeds submerged 10 seconds, 0-8000 ppm tested): 250 ppm; effect on lateral root development [1, 10]: increased lateral root development; concentration with highest lateral root development ([2]; roots washed out 5 days later): 5 ppm; Severe phytotoxicity, application concentration ([2]; 0-2000 ppm tested): above 50 ppm; % closed bolls [3, 11]: 56.7%; % open bolls [3, 11]: 43.3%; number bolls [3, 11]: 1096; % closed bolls ([3]; Seed soak, 250 ppm on Day 1): 66.9%; % open bolls ([3]; Seed soak, 250 ppm on Day 1): 33.1%; number bolls ([3]; Seed soak, 250 ppm on Day 1): 1212; number bolls ([3]; Seedling spray, 5 ppm at cotyledon-first leaf stage, Day 21): 1202; % closed bolls ([3]; Seedling spray, 5 ppm, Day 21): 70.5%; % open bolls ([3]; Seedling spray, 5 ppm, Day 21): 29.5%; % increase over control [3, 11]: 1%; % increase over control ([3]; Seed soak, 250 ppm on Day 1): 12%; % increase over control ([3]; Seedling spray, 5 ppm, Day 21): 11%; effect on number of healthy cotton bolls per plant [3, 10]: increased the number of healthy cotton bolls per plant; Root Length AB Spray [4, 12]: 104.39%; Root/Stem Ratio AB Spray [4, 12]: 138.67%; Shoot Length AB Spray [4, 12]: 79.98%; Root Length A Spray ([4]; 2.5 ppm ai at cotyledon stage): 91.86%; Root/Shoot Ratio A Spray ([4]; 2.5 ppm ai at cotyledon stage): 94.53%; Shoot Length A Spray ([4]; 2.5 ppm ai at cotyledon stage): 95.25%; Root Length AB Spray [4, 13]: 97.39%; Root/Stem Ratio AB Spray [4, 13]: 124.29%; Shoot Length AB Spray [4, 13]: 90.62%; Root Length A Spray ([4]; 5 ppm ai at cotyledon stage): 100.6%; Root/Shoot Ratio A Spray ([4]; 5 ppm ai at cotyledon stage): 137.48%; Shoot Length A Spray ([4]; 5 ppm ai at cotyledon stage): 80.12%; Root Length AB Spray [4, 14]: 106.69%; Root/Stem Ratio AB Spray [4, 14]: 119.08%; Shoot Length AB Spray [4, 14]: 90.13%; Root Length A Spray ([4]; 7.5 ppm ai at cotyledon stage): 97.46%; Root/Shoot Ratio A Spray ([4]; 7.5 ppm ai at cotyledon stage): 105.16%; Shoot Length A Spray ([4]; 7.5 ppm ai at cotyledon stage): 91.78%; increase in the ratio of root length to stem length above the untreated level ([4]; Treatment A alone at 5 ppm): > 20%; effect on ratio of root length to stem length ([4]; moderate concentrations): increases the ratio of root length to stem length; increase in the ratio of root length to stem length above the untreated level ([4]; treatment A at 2.5 ppm together with treatment B): > 20%; increase in the ratio of root length to stem length above the untreated level ([4]; treatment A at 5 ppm together with treatment B): > 20%; root weight, Winter wheat (AB spray) ([5]; 2.5 ppm ai at stage 1 + 5 ppm 3 days after): 0.76 grams; root weight, Winter wheat (A spray) ([5]; 2.5 ppm ai at stage 1): 0.91 grams; root weight, Winter wheat (AB spray) ([5]; 5 ppm ai at stage 1 + 5 ppm 3 days after): 0.71 grams; root weight, Winter wheat (A spray) ([5]; 5 ppm ai at stage 1): 0.69 grams; root weight, Winter wheat (AB spray) ([5]; 7.5 ppm ai at stage 1 + 5 ppm 3 days after): 0.87 grams; root weight, Winter wheat (A spray) ([5]; 7.5 ppm ai at stage 1): 0.72 grams; root weight, Broccoli (AB spray) [6, 12]: 0.67 grams; root weight, Broccoli (A spray) ([6]; 2.5 ppm ai at cotyledon stage): 0.68 grams; root weight, Broccoli (AB spray) [6, 13]: 0.79 grams; root weight, Broccoli (A spray) ([6]; 5 ppm ai at cotyledon stage): 0.8 grams; root weight, Broccoli (AB spray) [6, 14]: 0.79 grams; root weight, Broccoli (A spray) ([6]; 7.5 ppm ai at cotyledon stage): 0.76 grams; increase in root weight above the untreated level ([6]; treatment A at 5 ppm, absence of treatment B): > 10%; increase in root weight above the untreated level ([6]; treatment A at 5 ppm, presence of treatment B): > 10%; increase in root weight above the untreated level ([6]; treatment A at 7.5 ppm, absence of treatment B): > 10%; increase in root weight above the untreated level ([6]; treatment A at 7.5 ppm, presence of treatment B): > 10%; root weight, Winter Wheat Seed Treat. ([7]; 2.5 ppm ai): 0.97 grams; root weight, Winter Wheat Seed Treat. ([7]; 5 ppm ai): 0.81 grams; root weight, Winter Wheat Seed Treat. ([7]; 7.5 ppm ai): 0.86 grams; solubility in water [8]: weakly soluble in water; also recorded: poorly soluble in water; stability [9]: stable across a wide pH range
